± gives the standard deviation of the averaged measurements.
What was measured:
Experiment in all cases: level (log10 ratio to DMSO vehicle control); higher = higher biomarker level / cell amount than vehicle control
[1] = compound: C=CC(=O)OCC(F)(F)C(F)(F)C(F)(F)C(F)(F)C(F)(F)C(F)(F)C(F)(F)C(F)F [1H,1H,9H-Perfluorononyl acrylate]; conditions: in DMSO
Protocol: (§1)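 BioMAP Diversity Plus panel of 12 human primary cell co-culture systems (3C, 4H, LPS, SAg, BT, BF4T, BE3C, CASM3C, HDF3CGF, KF3CT, MyoF, Mphg). Compounds were added 1 h before stimulation and left for 24 h (MyoF 48 h; BT 72 h for soluble read-outs or 6 d for IgG). Biomarkers were read by ELISA, cytotoxicity by SRB, PBMC viability and proliferation by Alamar Blue. Each well value was divided by the mean of 8 DMSO control wells on the same plate and log10 transformed; duplicate blinded samples were tested at 4 concentrations.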

[2] = compound: C=CC(=O)OCC(F)(F)C(F)(F)C(F)(F)C(F)(F)COC(=O)C=C [1H,1H,6H,6H-Perfluorohexane-1,6-diol diacrylate]; conditions: 6700 nM; in DMSO
Protocol: as §1

[3] = compound: FC(F)(I)C(F)(F)C(F)(F)C(F)(F)C(F)(F)C(F)(F)I [1,6-Diiodoperfluorohexane]; conditions: 6700 nM; in DMSO
Protocol: as §1

[4] = compound: O=C(CC(=O)C(F)(F)C(F)(F)C(F)(F)F)c1cccs1 [(Perfluorobutyryl)-2-thenoylmethane]; conditions: in DMSO
Protocol: as §1

Tetrafluorosuccinic acid = compound: O=C(O)C(F)(F)C(F)(F)C(=O)O [Tetrafluorosuccinic acid]; conditions: in DMSO
Protocol: as §1

[5] = compound: O=C(O)C(F)(F)C(F)(F)C(F)(F)C(F)(F)C(F)(F)C(F)(F)C(F)(F)F [Ammonium perfluorooctanoate]; conditions: in DMSO
Protocol: as §1

Perfluorooctanoic acid = compound: O=C(O)C(F)(F)C(F)(F)C(F)(F)C(F)(F)C(F)(F)C(F)(F)C(F)(F)F [Perfluorooctanoic acid]; conditions: in DMSO
Protocol: as §1

[6] = compound: OCCC(F)(F)C(F)(F)C(F)(F)C(F)(F)C(F)(F)C(F)(F)C(F)(F)C(F)(F)F [8:2 Fluorotelomer alcohol]; conditions: 6700 nM; in DMSO
Protocol: as §1

[7] = compound: OCCCC(F)(F)C(F)(F)C(F)(F)C(F)(F)C(F)(F)C(F)(F)C(F)(F)C(F)(F)F [3-(Perfluorooctyl)propanol]; conditions: 6700 nM; in DMSO
Protocol: as §1

BE3C:IL-1alpha
level (log10) ([1]; 6700 nM): -0.01 ± 0.0085 | level (log10) ([1]; 20000 nM): -0.021 ± 0.018 | level (log10) ([1]; 60000 nM): -0.03 ± 0.021 | level (log10) [2]: -0.0735 ± 0.03 | level (log10) [3]: -0.004 | level (log10) ([4]; 6700 nM): -0.0165 ± 0.00071 | level (log10) ([4]; 20000 nM): -0.19 ± 0.005 | level (log10) (Tetrafluorosuccinic acid; 6700 nM): 0.019 ± 0.013 | level (log10) (Tetrafluorosuccinic acid; 20000 nM): 0.009 ± 0.02 | level (log10) (Tetrafluorosuccinic acid; 60000 nM): 0.0385 ± 0.012 | level (log10) ([5]; 6700 nM): -0.008 ± 0.024 | level (log10) ([5]; 20000 nM): -0.019 ± 0.021 | level (log10) ([5]; 60000 nM): -0.028 ± 0.011 | level (log10) (Perfluorooctanoic acid; 6700 nM): 0.0075 ± 0.00071 | level (log10) (Perfluorooctanoic acid; 20000 nM): -0.0035 ± 0.0035 | level (log10) (Perfluorooctanoic acid; 60000 nM): 0.0185 ± 0.016 | level (log10) [6]: -0.014 ± 0.0014 | level (log10) [7]: 0.0155 ± 0.03

3C:CD87/uPAR
level (log10) ([1]; 6700 nM): 0.012 ± 0.04 | level (log10) ([1]; 20000 nM): 0.016 ± 0.013 | level (log10) ([1]; 60000 nM): 0.017 ± 0.0099 | level (log10) [2]: 0.0105 ± 0.029 | level (log10) [3]: -0.022 | level (log10) ([4]; 6700 nM): -0.148 ± 0.033 | level (log10) ([4]; 20000 nM): -0.07 ± 0.03 | level (log10) (Tetrafluorosuccinic acid; 6700 nM): -0.022 ± 0.024 | level (log10) (Tetrafluorosuccinic acid; 20000 nM): -0.0085 ± 0.0078 | level (log10) (Tetrafluorosuccinic acid; 60000 nM): -0.019 ± 0.033 | level (log10) ([5]; 6700 nM): -0.007 ± 0.0042 | level (log10) ([5]; 20000 nM): -0.0095 ± 0.013 | level (log10) ([5]; 60000 nM): -0.056 ± 0.011 | level (log10) (Perfluorooctanoic acid; 6700 nM): -0.0005 ± 0.0021 | level (log10) (Perfluorooctanoic acid; 20000 nM): -0.0035 ± 0.005 | level (log10) (Perfluorooctanoic acid; 60000 nM): -0.0425 ± 0.0021 | level (log10) [6]: 0.008 ± 0.018 | level (log10) [7]: -0.03 ± 0.04

LPS:sTNF-alpha
level (log10) ([1]; 6700 nM): 0.085 ± 0.028 | level (log10) ([1]; 20000 nM): 0.0465 ± 0.042 | level (log10) ([1]; 60000 nM): 0.004 ± 0.086 | level (log10) [2]: 0.0235 ± 0.029 | level (log10) [3]: -0.007 | level (log10) ([4]; 6700 nM): 0.0225 ± 0.036 | level (log10) ([4]; 20000 nM): 0.119 ± 0.029 | level (log10) (Tetrafluorosuccinic acid; 6700 nM): -0.0025 ± 0.018 | level (log10) (Tetrafluorosuccinic acid; 20000 nM): 0.0025 ± 0.011 | level (log10) (Tetrafluorosuccinic acid; 60000 nM): 0.009 ± 0.011 | level (log10) ([5]; 6700 nM): 0.004 ± 0.0085 | level (log10) ([5]; 20000 nM): 0.001 ± 0.0057 | level (log10) ([5]; 60000 nM): -0.0135 ± 0.00071 | level (log10) (Perfluorooctanoic acid; 6700 nM): 0.032 ± 0.0099 | level (log10) (Perfluorooctanoic acid; 20000 nM): 0.0305 ± 0.021 | level (log10) (Perfluorooctanoic acid; 60000 nM): 0.0085 ± 0.013 | level (log10) [6]: 0.0175 ± 0.03 | level (log10) [7]: -0.335 ± 0.2

LPS:sPGE2
level (log10) ([1]; 6700 nM): -0.046 ± 0.0071 | level (log10) ([1]; 20000 nM): -0.123 ± 0.053 | level (log10) ([1]; 60000 nM): -0.15 ± 0.11 | level (log10) [2]: -0.0195 ± 0.0064 | level (log10) [3]: -0.063 | level (log10) ([4]; 6700 nM): -0.066 ± 0.052 | level (log10) ([4]; 20000 nM): 0.0635 ± 0.0064 | level (log10) (Tetrafluorosuccinic acid; 6700 nM): 0.0125 ± 0.032 | level (log10) (Tetrafluorosuccinic acid; 20000 nM): -0.002 ± 0.047 | level (log10) (Tetrafluorosuccinic acid; 60000 nM): 0.054 ± 0.031 | level (log10) ([5]; 6700 nM): -0.0185 ± 0.022 | level (log10) ([5]; 20000 nM): -0.067 ± 0.018 | level (log10) ([5]; 60000 nM): -0.172 ± 0.044 | level (log10) (Perfluorooctanoic acid; 6700 nM): 0.0065 ± 0.016 | level (log10) (Perfluorooctanoic acid; 20000 nM): -0.067 ± 0.02 | level (log10) (Perfluorooctanoic acid; 60000 nM): -0.159 ± 0.064 | level (log10) [6]: -0.11 ± 0.033 | level (log10) [7]: -0.061 ± 0.061

3C:SRB
level (log10) ([1]; 6700 nM): 0.0015 ± 0.0078 | level (log10) ([1]; 20000 nM): 0.016 ± 0.0042 | level (log10) ([1]; 60000 nM): -0.014 ± 0.023 | level (log10) [2]: -0.0015 ± 0.028 | level (log10) [3]: 0.03 | level (log10) ([4]; 6700 nM): -0.0035 ± 0.028 | level (log10) ([4]; 20000 nM): -0.139 ± 0.021 | level (log10) (Tetrafluorosuccinic acid; 6700 nM): -0.0065 ± 0.011 | level (log10) (Tetrafluorosuccinic acid; 20000 nM): -0.0135 ± 0.0078 | level (log10) (Tetrafluorosuccinic acid; 60000 nM): -0.021 ± 0.017 | level (log10) ([5]; 6700 nM): -0.0015 ± 0.012 | level (log10) ([5]; 20000 nM): -0.014 ± 0.0042 | level (log10) ([5]; 60000 nM): -0.05 ± 0.0099 | level (log10) (Perfluorooctanoic acid; 6700 nM): -0.017 ± 0.0042 | level (log10) (Perfluorooctanoic acid; 20000 nM): 0.0045 ± 0.019 | level (log10) (Perfluorooctanoic acid; 60000 nM): -0.102 ± 0.044 | level (log10) [6]: -0.014 ± 0.0099 | level (log10) [7]: -0.0195 ± 0.018

BE3C:CXCL8/IL-8
level (log10) ([1]; 6700 nM): -0.0165 ± 0.016 | level (log10) ([1]; 20000 nM): -0.012 ± 0.013 | level (log10) ([1]; 60000 nM): -0.004 ± 0.024 | level (log10) [2]: -0.095 ± 0.013 | level (log10) [3]: 0.011 | level (log10) ([4]; 6700 nM): -0.0905 ± 0.013 | level (log10) ([4]; 20000 nM): -0.01 ± 0.023 | level (log10) (Tetrafluorosuccinic acid; 6700 nM): 0.0325 ± 0.052 | level (log10) (Tetrafluorosuccinic acid; 20000 nM): 0.0315 ± 0.071 | level (log10) (Tetrafluorosuccinic acid; 60000 nM): 0.0525 ± 0.0064 | level (log10) ([5]; 6700 nM): 0.043 ± 0.021 | level (log10) ([5]; 20000 nM): 0.0095 ± 0.039 | level (log10) ([5]; 60000 nM): -0.066 ± 0.04 | level (log10) (Perfluorooctanoic acid; 6700 nM): -0.029 ± 0.055 | level (log10) (Perfluorooctanoic acid; 20000 nM): -0.0165 ± 0.057 | level (log10) (Perfluorooctanoic acid; 60000 nM): -0.0385 ± 0.0035 | level (log10) [6]: -0.054 ± 0.0042 | level (log10) [7]: -0.046 ± 0.011

4H:CCL2/MCP-1
level (log10) ([1]; 6700 nM): -0.0255 ± 0.0064 | level (log10) ([1]; 20000 nM): -0.0105 ± 0.028 | level (log10) ([1]; 60000 nM): 0.0245 ± 0.019 | level (log10) [2]: -0.0235 ± 0.019 | level (log10) [3]: -0.03 | level (log10) ([4]; 6700 nM): -0.0825 ± 0.0078 | level (log10) ([4]; 20000 nM): -0.249 ± 0.0042 | level (log10) (Tetrafluorosuccinic acid; 6700 nM): -0.037 ± 0.021 | level (log10) (Tetrafluorosuccinic acid; 20000 nM): -0.04 ± 0.028 | level (log10) (Tetrafluorosuccinic acid; 60000 nM): -0.0055 ± 0.086 | level (log10) ([5]; 6700 nM): -0.01 ± 0.0057 | level (log10) ([5]; 20000 nM): -0.026 ± 0.0085 | level (log10) ([5]; 60000 nM): -0.0475 ± 0.039 | level (log10) (Perfluorooctanoic acid; 6700 nM): -0.028 ± 0.0071 | level (log10) (Perfluorooctanoic acid; 20000 nM): -0.0395 ± 0.013 | level (log10) (Perfluorooctanoic acid; 60000 nM): -0.0555 ± 0.054 | level (log10) [6]: -0.012 ± 0.014 | level (log10) [7]: 0.0195 ± 0.0078

BF4T:uPA
level (log10) ([1]; 6700 nM): -0.0055 ± 0.023 | level (log10) ([1]; 20000 nM): -0.0075 ± 0.018 | level (log10) ([1]; 60000 nM): -0.002 ± 0.018 | level (log10) [2]: -0.02 ± 0.035 | level (log10) [3]: -0.031 | level (log10) ([4]; 6700 nM): -0.0235 ± 0.00071 | level (log10) ([4]; 20000 nM): -0.0535 ± 0.047 | level (log10) (Tetrafluorosuccinic acid; 6700 nM): -0.004 ± 0.0014 | level (log10) (Tetrafluorosuccinic acid; 20000 nM): -0.0185 ± 0.0064 | level (log10) (Tetrafluorosuccinic acid; 60000 nM): -0.0095 ± 0.0092 | level (log10) ([5]; 6700 nM): 0.014 ± 0.0028 | level (log10) ([5]; 20000 nM): 0.0175 ± 0.0021 | level (log10) ([5]; 60000 nM): 0.042 ± 0.013 | level (log10) (Perfluorooctanoic acid; 6700 nM): -0.0245 ± 0.023 | level (log10) (Perfluorooctanoic acid; 20000 nM): -0.0315 ± 0.016 | level (log10) (Perfluorooctanoic acid; 60000 nM): -0.0185 ± 0.013 | level (log10) [6]: -0.047 ± 0.0057 | level (log10) [7]: 0.006 ± 0.0085
